Test results published in patent US5420276A, “Analogs of oxetanyl purines and pyrimidines” (Abbott Laboratories, priority 1993, dated 1995).
≈ marks a conversion by molar mass, not a printed value. Read-outs that look alike come from different tables or passages of the source.

Assays:
[1] = system: Herpes simplex type 1 (HSV-1) strain E-377; test: CPE-inhibition assay, herpes simplex type 1 strain E-377 in Vero cells; format: cell-based, herpes simplex virus type 1; settings: for VR (Virus Rating): HSV-1 (E-377); for IC50: Human alphaherpesvirus 1, HSV-1 (E-377), minimum drug concentration that inhibited the CPE by 50%, read-out: ID50 (the source's name)
Protocol: (§1) The challenge viruses were propagated and assayed in cells that were pregrown as monolayer cultures in plastic tissue culture flasks and 96-well plates, using cell culture media appropriate for the host cell cultures. The following viruses and host cell cultures were employed:
(§2) green monkey kidney (Vero)
(§3) On the day of use, a weighed sample of each compound to be evaluated was dissolved and diluted in serial 10^0.5 dilutions in the culture medium appropriate for each virus-host cell system.
(§4) Mammalian cells were pregrown as monolayers in wells of COSTAR 96-well tissue culture plates using suitable cell culture media. Stock viruses were pretitered according to the method of Reed and Muench (Amer. J. Hyg. 27:493-497, 1938) and diluted in cell culture medium to yield 32 CCID50 (cell culture infectious dose, 50%) units per 0.1 ml. Antiviral assays were designed to test seven concentrations of each compound, from cytotoxic to noncytotoxic levels, in triplicate against each of the challenge viruses in microtiter plate wells containing suitable cell monolayers. To each of the replicate cell cultures were added 0.1 ml of the test drug solution and 0.1 ml of virus suspension. Cell controls containing medium alone, virus controls containing medium and virus, and drug cytotoxicity controls containing medium and each drug concentration were run simultaneously with the test samples assayed in each experiment. […] The cell monolayers were examined microscopically for virus-induced CPE and for drug cytotoxicity.
(§5) Antiviral activity was determined by calculating the degree of inhibition of virus-induced CPE in drug-treated, virus-infected cell cultures by means of a virus rating (VR). The VR is a standard weighted measurement of antiviral activity taking into account both the degree of CPE inhibition and drug cytotoxicity, and is determined by a modification of the method of Ehrlich et al. (Ann. N.Y. Acad. Sci. 130: 5-16, 1965) as described below. CPE was graded for each individual culture in each microtiter plate well according to the following scale:
(§6) 4=100% of the cells affected by virus;
(§7) 3=75% of the cells affected by virus;
(§8) 2=50% of the cells affected by virus;
(§9) 1=25% of the cells affected by virus;
(§10) 0=No CPE; normal cell monolayer.
(§11) The VR was calculated as 0.1 of the sum of the numerical differences between the recorded CPE grade of each test well and that of the corresponding virus control in the culture plate. Numerical differences between the scores of test wells containing a drug concentration which was partially cytotoxic (p) and their corresponding virus controls were halved.
(§12) The minimum inhibitory drug concentration which reduced the cytopathogenic effect (CPE) by 50% (MIC50) was calculated by using a regression analysis program for semilog curve fitting. A therapeutic index (TI) for each active compound for each susceptible virus was determined by dividing the minimum cytotoxic concentration of the test compound by the MIC50.

[2] = system: Herpes simplex type 2 (HSV-2) strain MS; test: CPE-inhibition assay, herpes simplex type 2 strain MS in Vero cells; format: cell-based, herpes simplex virus type 2; settings: for VR (Virus Rating): HSV-2 (MS)
Protocol: as §1, §2, §3, §4, §5, §6, §7, §8, §9, §10, §11, §12

[3] = Drug cytotoxicity in Vero cells (microscopic, CPE-inhibition assay); format: cell-based; settings: african green monkey, minimum drug concentration causing any cytotoxicity, read-out: MTC
Protocol: as §4, §5, §12

[4] = MTT drug cytotoxicity assay in MRC5 cells; format: cell-based; settings: human, read-out: MTT assay Percent of control
Protocol: Human diploid embryonic lung (MRC5) cells were grown in 35 mm wells of 6-well tissue culture plates. Subconfluent cell monolayers were rinsed with phosphate-buffered saline (PBS) and were exposed to 0.5 ml/well of HCMV (strain AD169) suspension for 1.5 hours at 37° C. The virus suspension was diluted in MEM+2% fetal bovine serum (FBS) to yield a multipicity of infection (MOI) of approximately 0.1 plaque forming units (PFU)/cell. Following the virus adsorption period, the inocula were removed and infected cell layers were rinsed with PBS. Aliquiots (2.0 ml) of each test drug concentration (dissolved in MEM supplemented with 2% FBS) were dispensed into triplicate cell cultures: two virus-infected cultures and one uninfected cytotoxicity control culture (exposed to medium without virus for 1.5 hours). Untreated virus-infected control cultures and untreated, uninfected cell control cultures were fed with medium alone. The culture plates were incubated at 37° C. in a humidified atmosphere of 2% CO2 in air.
All cell culture fluids were replaced with fresh drug and medium 48 hours postinfection (p.i.).
Drug cytotoxicity was determined quantitatively by a method based on the reduction of the tetrazolium salt, 3-(4,5-dimethyl-thiazol-2-yl)-2,5-diphenyl tetrazolium bromide (MTT) by mitochondrial enzymes of viable host cells to MTT formazan (T. Mosmann, 1983). Drug cytotoxicity controls and cell controls were treated with MTT (dissolved in culture medium) followed by 20% SDS (in 0.02N HCl) to dissolve the crystals of MTT formazan. The blue color of the MTT formazan was measured spectrophotometrically at 570 nm. Drug cytotoxicity was determined by comparing the absorbance (O.D.) of each drug cytotoxicity control with the mean O.D. of the cell control cultures and expressed as percent of control.

| IC50 [1] [µg/mL] | IC50 ([2]; Human alphaherpesvirus 2, HSV-2 (MS), minimum drug concentration that inhibited the CPE by 50%, read-out: ID50 (the source's name)) [µg/mL] | Structure (SMILES) | VR (Virus Rating) [1] | VR (Virus Rating) [2] | MCC ([3]; HSV-1 (E-377)) [µg/mL] | MCC ([3]; HSV-2 (MS)) [µg/mL] | viability ([4]; 0.32 μg/ml) [%] | viability ([4]; 1.0 μg/ml) [%] | viability ([4]; 3.2 μg/ml) [%] | viability ([4]; 10 μg/ml) [%] | viability ([4]; 32 μg/ml) [%] | viability ([4]; 100 μg/ml) [%] | viability ([4]; 320 μg/ml) [%] |
| --- | --- | --- | --- | --- | --- | --- | --- | --- | --- | --- | --- | --- | --- |
| 0.8 (≈ 3.52 µM) | 1 (≈ 4.4 µM) | Nc1ccn([C@@H]2O[C@H](CO)[C@H]2CO)c(=O)n1 [Example 22, 1-([2'R,3'R,4'S]-3',4'-Bis(hydroxymethyl)-2'-oxetanyl)cytosine] | 2.65 | 1.95 | 10 | 10 | 84 | 81 | 77 | 78 |  |  |  |
| 307 (≈ 1340 µM) |  | O=c1ccn([C@@H]2O[C@H](CO)[C@H]2CO)c(=O)[nH]1 [Example 23, 1-([2'R,3'R,4'S]-3',4'-Bis(hydroxymethyl)-2'-oxetanyl)uracil] | 0.6 | 0.5 | 320 | 320 |  |  |  | 100 | 100 | 98 | 100 |
